In brackets after ≈: the same amount, converted by molar mass.
Columns and labels:
[1] = Lipophilicity, logD of the compound at pH 7.4; assay type: physicochemical; conditions: buffer
[2] = Unbound brain to plasma drug concentration ratio in mouse at 50 mg/kg,po administration and measured after 2 hrs; assay type: ADME, organism-based; conditions: read-out: K(p,uu,brain)
[3] = biological target: Serine-protein kinase ATM (Homo sapiens, UniProt Q13315); assay: Inhibition of ATM in human HT-29 cells incubated for 2 hrs by Alexa Fluor 488/Hoeschst staining based plate reader assay; assay type: cell-based
[4] = biological target: Serine/threonine-protein kinase ATR (Homo sapiens, UniProt Q13535); assay: Inhibition of ATR in human HT-29 cells incubated for 2 hrs by Alexa Fluor 488/Hoeschst staining based plate reader assay; assay type: cell-based
[5] = Aqueous solubility of the compound in pH 7.4; assay type: physicochemical; conditions: buffer
[6] = Apparent permeability across apical to basolateral side in dog MDCKII-MDR1 cells overexpressing BCRP at 0.1 uM incubated for 90 mins by LC-MS/MS analysis; assay type: ADME, cell-based, Canis lupus familiaris, MDCK-MDR1
MDR1, BCRP [7] = assay: Efflux ratio of apparent permeability across basolateral to apical side over apical to basolateral side in dog MDCKII-MDR1 cells overexpressing BCRP at 0.1 uM incubated for 90 mins by LC-MS/MS analysis; assay type: ADME, cell-based, Canis lupus familiaris, MDCK-MDR1
[8] = Apparent permeability across apical to basolateral side in dog MDCKII-MDR1 cells overexpressing BCRP at 1 uM incubated for 90 mins by LC-MS/MS analysis; assay type: ADME, cell-based, Canis lupus familiaris, MDCK-MDR1
MDR1, BCRP [9] = assay: Efflux ratio of apparent permeability across basolateral to apical side over apical to basolateral side in dog MDCKII-MDR1 cells overexpressing BCRP at 1 uM incubated for 90 mins by LC-MS/MS analysis; assay type: ADME, cell-based, Canis lupus familiaris, MDCK-MDR1
[10] = Intrinsic clearance in human hepatocyte assessed per 10^6 cells; assay type: ADME, cell-based; conditions: hepatocytes, read-out: CLH
[11] = Intrinsic clearance in rat hepatocyte assessed per 10^6 cells; assay type: ADME, cell-based; conditions: hepatocytes, read-out: CLH
[12] = biological target: Phosphatidylinositol 4,5-bisphosphate 3-kinase catalytic subunit alpha isoform (Homo sapiens, UniProt P42336); assay: Inhibition of PI3Kalpha in human BT-474 cells incubated for 140 mins by ELISA; assay type: cell-based
[13] = biological target: Serine/threonine-protein kinase mTOR (Homo sapiens, UniProt P42345); assay: Inhibition of mTOR in human MDA-MB-468 cells incubated for 2.5 hrs by Alexa Fluor 488 staining based fluorescence analysis; assay type: cell-based
[14] = Plasma protein binding in rat assessed as unbound fraction incubated for 16 hrs by equilibrium dialysis based UPLC-MS/MS analysis; assay type: ADME, cell-free
[15] = Plasma protein binding in dog assessed as unbound fraction incubated for 16 hrs by equilibrium dialysis based UPLC-MS/MS analysis; assay type: ADME, cell-free, Canis lupus familiaris
[16] = Plasma protein binding in human assessed as unbound fraction incubated for 16 hrs by equilibrium dialysis based UPLC-MS/MS analysis; assay type: ADME, cell-free
[17] = Volume of distribution at steady state in rat at 1 mg/kg,po or 0.5 mg/kg,iv administration measured for 24 hrs by LC-MS/MS analysis; assay type: ADME, organism-based; conditions: in vivo
[18] = Half life in rat at 1 mg/kg,po or 0.5 mg/kg,iv administration measured for 24 hrs by LC-MS/MS analysis; assay type: ADME, organism-based; conditions: in vivo
[19] = Bioavailability in rat at 1 mg/kg,po or 0.5 mg/kg,iv administration measured for 24 hrs by LC-MS/MS analysis; assay type: ADME, organism-based; conditions: in vivo
[20] = Volume of distribution at steady state in dog at 2 mg/kg,po or 1 mg/kg,iv administration measured for 24 hrs by LC-MS/MS analysis; assay type: ADME, organism-based, Canis lupus familiaris; conditions: in vivo
[21] = Half life in dog at 2 mg/kg,po or 1 mg/kg,iv administration measured for 24 hrs by LC-MS/MS analysis; assay type: ADME, organism-based, Canis lupus familiaris; conditions: in vivo
[22] = Dissociation constant, pKa of compound; assay type: physicochemical
[23] = Intrinsic clearance in dog hepatocyte assessed per 10^6 cells; assay type: ADME, cell-based, Canis lupus familiaris; conditions: hepatocytes, read-out: CLH
[24] = Intrinsic clearance in human liver microsomes; assay type: ADME, Microsome; conditions: read-out: CLH
[25] = Tmax in Cynomolgus monkey at iv administered as bolus injection measured at 4 to 90 mins by gamma counter analysis; assay type: ADME, organism-based, Macaca fascicularis; conditions: in vivo, time 4-90 min
[26] = Unbound fraction in Cynomolgus monkey brain at iv administered as bolus injection measured at 4 to 90 mins by PET analysis; assay type: ADME, organism-based, Macaca fascicularis; conditions: time 4-90 min
[27] = Unbound fraction in Cynomolgus monkey plasma at iv administered as bolus injection measured at 4 to 90 mins by PET analysis; assay type: ADME, organism-based, Macaca fascicularis; conditions: time 4-90 min
[28] = Unbound brain to plasma drug concentration ratio in Cynomolgus monkey at iv administered as bolus injection measured at 4 to 90 mins by PET analysis; assay type: ADME, organism-based, Macaca fascicularis; conditions: time 4-90 min, read-out: K(p,uu,brain)
[29] = biological target: DNA-dependent protein kinase catalytic subunit (Homo sapiens, UniProt P78527); assay: Inhibition of DNA-PK (unknown origin)
[30] = Bioavailability in dog at 2 mg/kg,po or 1 mg/kg,iv administration measured for 24 hrs by LC-MS/MS analysis; assay type: ADME, organism-based, Canis lupus familiaris; conditions: in vivo

Chain of Serine/threonine-protein kinase ATR (Q13535 whole entry): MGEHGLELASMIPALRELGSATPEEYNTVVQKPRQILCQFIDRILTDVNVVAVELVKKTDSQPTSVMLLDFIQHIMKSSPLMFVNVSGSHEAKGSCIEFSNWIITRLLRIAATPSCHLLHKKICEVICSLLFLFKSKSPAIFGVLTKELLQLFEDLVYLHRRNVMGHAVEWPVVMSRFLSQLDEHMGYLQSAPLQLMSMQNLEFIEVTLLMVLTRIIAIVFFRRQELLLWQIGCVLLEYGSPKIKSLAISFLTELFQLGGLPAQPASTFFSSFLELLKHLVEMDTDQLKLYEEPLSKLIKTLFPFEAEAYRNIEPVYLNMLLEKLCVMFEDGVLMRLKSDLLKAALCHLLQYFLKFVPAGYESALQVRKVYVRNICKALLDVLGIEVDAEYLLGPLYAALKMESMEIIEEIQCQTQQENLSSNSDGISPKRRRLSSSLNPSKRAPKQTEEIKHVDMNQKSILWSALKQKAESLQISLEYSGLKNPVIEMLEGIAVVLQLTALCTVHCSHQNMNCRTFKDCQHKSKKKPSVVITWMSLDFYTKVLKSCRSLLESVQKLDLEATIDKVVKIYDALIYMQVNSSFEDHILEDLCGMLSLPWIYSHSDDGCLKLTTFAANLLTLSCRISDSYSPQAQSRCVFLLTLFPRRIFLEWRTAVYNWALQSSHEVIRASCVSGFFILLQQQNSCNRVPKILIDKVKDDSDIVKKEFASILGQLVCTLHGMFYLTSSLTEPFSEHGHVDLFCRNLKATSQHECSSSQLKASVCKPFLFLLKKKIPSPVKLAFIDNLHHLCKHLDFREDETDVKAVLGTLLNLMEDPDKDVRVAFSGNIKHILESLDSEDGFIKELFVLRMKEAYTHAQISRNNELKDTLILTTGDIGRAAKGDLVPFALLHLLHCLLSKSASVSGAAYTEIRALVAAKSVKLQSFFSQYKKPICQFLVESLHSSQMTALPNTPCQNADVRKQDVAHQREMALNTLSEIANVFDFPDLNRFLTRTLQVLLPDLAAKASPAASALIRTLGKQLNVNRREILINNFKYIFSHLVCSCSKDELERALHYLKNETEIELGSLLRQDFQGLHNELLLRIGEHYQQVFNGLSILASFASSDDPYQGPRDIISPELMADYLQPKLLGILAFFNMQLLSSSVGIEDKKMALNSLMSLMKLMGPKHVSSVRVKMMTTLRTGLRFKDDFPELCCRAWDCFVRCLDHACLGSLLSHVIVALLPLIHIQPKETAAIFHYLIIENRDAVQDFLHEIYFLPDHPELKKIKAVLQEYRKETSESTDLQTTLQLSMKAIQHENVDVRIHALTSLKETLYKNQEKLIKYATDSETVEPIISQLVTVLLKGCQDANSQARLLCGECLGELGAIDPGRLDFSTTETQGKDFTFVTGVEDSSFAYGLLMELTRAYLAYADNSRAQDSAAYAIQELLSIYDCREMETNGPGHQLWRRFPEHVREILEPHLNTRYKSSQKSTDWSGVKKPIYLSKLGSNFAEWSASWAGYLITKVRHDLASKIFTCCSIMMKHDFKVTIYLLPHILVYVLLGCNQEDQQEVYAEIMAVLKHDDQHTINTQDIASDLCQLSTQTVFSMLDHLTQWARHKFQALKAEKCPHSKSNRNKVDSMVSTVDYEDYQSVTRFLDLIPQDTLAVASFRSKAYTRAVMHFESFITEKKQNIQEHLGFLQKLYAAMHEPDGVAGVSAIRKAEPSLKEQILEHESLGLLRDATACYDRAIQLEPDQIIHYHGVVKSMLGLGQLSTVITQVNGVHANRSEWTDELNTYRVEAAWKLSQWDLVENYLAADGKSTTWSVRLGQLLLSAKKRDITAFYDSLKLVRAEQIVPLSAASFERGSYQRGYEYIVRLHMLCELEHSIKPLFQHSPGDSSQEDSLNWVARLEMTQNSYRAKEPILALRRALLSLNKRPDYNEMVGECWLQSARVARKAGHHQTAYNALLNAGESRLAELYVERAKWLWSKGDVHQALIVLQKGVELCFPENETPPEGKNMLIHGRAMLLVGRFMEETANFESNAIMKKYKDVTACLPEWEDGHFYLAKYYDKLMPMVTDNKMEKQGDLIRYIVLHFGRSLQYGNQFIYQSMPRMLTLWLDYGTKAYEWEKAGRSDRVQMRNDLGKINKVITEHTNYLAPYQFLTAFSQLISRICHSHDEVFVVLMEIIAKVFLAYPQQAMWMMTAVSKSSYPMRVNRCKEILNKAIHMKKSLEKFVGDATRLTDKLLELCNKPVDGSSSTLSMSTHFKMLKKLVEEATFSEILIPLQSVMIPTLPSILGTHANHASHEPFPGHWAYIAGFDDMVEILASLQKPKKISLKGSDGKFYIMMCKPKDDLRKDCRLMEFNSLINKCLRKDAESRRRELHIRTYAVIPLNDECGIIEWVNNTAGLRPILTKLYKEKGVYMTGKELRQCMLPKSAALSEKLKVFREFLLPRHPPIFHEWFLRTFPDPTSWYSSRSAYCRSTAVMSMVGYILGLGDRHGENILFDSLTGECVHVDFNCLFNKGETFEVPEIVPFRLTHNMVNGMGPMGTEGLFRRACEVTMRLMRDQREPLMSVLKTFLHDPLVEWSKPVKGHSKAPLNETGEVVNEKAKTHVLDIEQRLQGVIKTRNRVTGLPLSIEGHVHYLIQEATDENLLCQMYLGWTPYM
Chain of Phosphatidylinositol 4,5-bisphosphate 3-kinase catalytic subunit alpha isoform (P42336 whole entry, canonical isoform): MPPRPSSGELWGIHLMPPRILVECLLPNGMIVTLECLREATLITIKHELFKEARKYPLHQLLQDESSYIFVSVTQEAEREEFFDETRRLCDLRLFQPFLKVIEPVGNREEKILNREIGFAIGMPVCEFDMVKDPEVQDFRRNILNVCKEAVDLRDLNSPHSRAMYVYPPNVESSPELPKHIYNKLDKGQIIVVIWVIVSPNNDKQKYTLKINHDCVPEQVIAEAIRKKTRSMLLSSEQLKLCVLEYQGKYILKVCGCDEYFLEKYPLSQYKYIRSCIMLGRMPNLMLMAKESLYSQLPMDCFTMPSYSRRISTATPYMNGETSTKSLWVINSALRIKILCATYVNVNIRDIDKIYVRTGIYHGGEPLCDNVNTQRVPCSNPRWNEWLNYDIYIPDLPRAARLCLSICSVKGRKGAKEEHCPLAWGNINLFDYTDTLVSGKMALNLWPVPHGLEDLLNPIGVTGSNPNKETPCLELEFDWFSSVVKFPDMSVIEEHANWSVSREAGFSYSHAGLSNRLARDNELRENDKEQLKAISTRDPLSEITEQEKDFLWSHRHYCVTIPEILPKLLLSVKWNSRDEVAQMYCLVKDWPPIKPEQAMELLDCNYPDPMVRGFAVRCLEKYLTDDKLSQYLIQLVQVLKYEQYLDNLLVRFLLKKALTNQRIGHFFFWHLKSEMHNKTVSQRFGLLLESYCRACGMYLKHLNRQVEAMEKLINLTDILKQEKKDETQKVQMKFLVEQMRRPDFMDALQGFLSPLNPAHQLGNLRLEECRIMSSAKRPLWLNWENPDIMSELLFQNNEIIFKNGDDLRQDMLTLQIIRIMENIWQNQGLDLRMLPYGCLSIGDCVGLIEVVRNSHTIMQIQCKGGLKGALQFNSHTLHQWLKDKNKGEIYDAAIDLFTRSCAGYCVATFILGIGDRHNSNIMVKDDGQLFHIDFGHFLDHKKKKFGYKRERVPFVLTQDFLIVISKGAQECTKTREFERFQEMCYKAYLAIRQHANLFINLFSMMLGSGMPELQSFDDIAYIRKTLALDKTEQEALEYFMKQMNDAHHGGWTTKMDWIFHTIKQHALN

`Cn1c(=O)n(C2CCOCC2)c2c3cc(-c4cccnc4)ccc3ncc21` gave a logD [1] of 2.2 and a Kp uu at 2 h [2] of 0.67.

In the case of `CC(C)n1c(=O)n(C)c2cnc3ccc(-c4ccc(OCCCN5CCCC5)nc4)cc3c21`, the IC50 [3] is reported as 0.000251 µM, the IC50 [4] is reported as > 31.6 µM and the logD [1] is reported as 2. The solubility [5] was 499 µM (≈ 222 µg/mL), the Papp A→B at […], 0.1 µM [6] was 24 ×10⁻⁶ cm/s and the efflux ratio at […], 0.1 µM (MDR1, BCRP [7]) was 2.6. The Papp A→B at […], 1 µM [8] was 25 ×10⁻⁶ cm/s, the efflux ratio at […], 1 µM (MDR1, BCRP [9]) was 0.8 and the hepatocyte CLint [10] was 2.6 µL/min/1e6 cells. For the same compound, the hepatocyte CLint [11] was 1.8 µL/min/1e6 cells.

For `CC(C)n1c(=O)n(C)c2cnc3ccc(-c4ccc(OCCCN(C)C)nc4)cc3c21`, the IC50 [4] was > 20 µM, the logD [1] was 1.9 and the solubility [5] was 480 µM (≈ 201 µg/mL). It also gave a Papp A→B at […], 0.1 µM [6] of 13 ×10⁻⁶ cm/s, an efflux ratio at […], 0.1 µM (MDR1, BCRP [7]) of 6.3 and a Papp A→B at […], 1 µM [8] of 21 ×10⁻⁶ cm/s. For the same compound, the efflux ratio at […], 1 µM (MDR1, BCRP [9]) was 2.1, the hepatocyte CLint [10] was 5.2 µL/min/1e6 cells and the hepatocyte CLint [11] was 14 µL/min/1e6 cells.

With `CC(C)n1c(=O)n(C)c2cnc3ccc(-c4ccc(N5CC[C@@H](N(C)C)C5)nc4)cc3c21` the logD [1] was 3, the solubility [5] was 22 µM (≈ 9.47 µg/mL) and the Papp A→B at […], 1 µM [8] was 27 ×10⁻⁶ cm/s. It also gave a hepatocyte CLint [10] of 4.5 µL/min/1e6 cells, a hepatocyte CLint [11] of 27 µL/min/1e6 cells and an IC50 [12] of 0.316 µM. The IC50 [13] was 3.16 µM, the fraction unbound at 16 h [14] was 0.004 and the fraction unbound at 16 h [15] was 0.26. It also gave a fraction unbound at 16 h [16] of 0.07, a Vdss [17] of 0.6 L/kg and a half-life [18] of 2.9 h. The bioavailability [19] was 53%, the Vdss [20] was 7.5 L/kg and the half-life [21] was 1.6 h. For the same compound, the pKa [22] was 7.9 and the hepatocyte CLint [23] was 80 µL/min/1e6 cells.

In the case of `CC(C)n1c(=O)n(C)c2cnc3ccc(-c4ccc(OCCCN5CC[C@H](F)C5)nc4)cc3c21`, the IC50 [4] is reported as > 20 µM, the logD [1] is reported as 3 and the solubility [5] is reported as 43 µM (≈ 19.9 µg/mL). For the same compound, the Papp A→B at […], 0.1 µM [6] was 19 ×10⁻⁶ cm/s, the hepatocyte CLint [10] was 7.2 µL/min/1e6 cells and the hepatocyte CLint [11] was 20 µL/min/1e6 cells. It also gave a pKa [22] of 8.1 and a microsomal CLint [24] of 65 µL/min/mg.

`CC(C)n1c(=O)n(C)c2cnc3ccc(-c4ccc(OCCCN5CCC(F)CC5)nc4)cc3c21` showed a logD [1] of 3.3, a solubility [5] of 15 µM (≈ 7.16 µg/mL) and a Papp A→B at […], 0.1 µM [6] of 14 ×10⁻⁶ cm/s. It also gave a Papp A→B at […], 1 µM [8] of 13 ×10⁻⁶ cm/s, a hepatocyte CLint [10] of 8.5 µL/min/1e6 cells and a hepatocyte CLint [11] of 29 µL/min/1e6 cells. The pKa [22] was 8.5 and the microsomal CLint [24] was 100 µL/min/mg.

For `CC(C)n1c(=O)n([11CH3])c2cnc3cc(F)c(-c4ccc(OCCCN(C)C)nc4)cc3c21`, the Tmax [25] was 4.5 min, the fraction unbound [26] was 0.02 and the fraction unbound [27] was 0.195. For the same compound, the Kp uu [28] was 0.41.

`CC(C)n1c(=O)n([11CH3])c2cnc3cc(F)c(-c4ccc(OCCCN5CCCCC5)nc4)cc3c21` gave a Tmax [25] of 9.3 min, a fraction unbound [26] of 0.01 and a fraction unbound [27] of 0.175. The Kp uu [28] was 0.33.

For `CC(C)n1c(=O)n(C)c2cnc3cc(F)c(-c4ccc(OCCCN5CCCCC5)nc4)cc3c21` [AZD-1390], the IC50 [3] was 0.000794 µM, the IC50 [4] was > 31.6 µM and the solubility [5] was 693 µM (≈ 331 µg/mL). For the same compound, the Papp A→B at […], 0.1 µM [6] was 17 ×10⁻⁶ cm/s, the Papp A→B at […], 1 µM [8] was 24 ×10⁻⁶ cm/s and the IC50 [12] was > 12.6 µM. For the same compound, the IC50 [13] was > 15.8 µM, the IC50 [29] was > 31.6 µM and the fraction unbound at 16 h [14] was 0.04. For the same compound, the fraction unbound at 16 h [15] was 0.25, the fraction unbound at 16 h [16] was 0.26 and the Vdss [17] was 3 L/kg. For the same compound, the bioavailability [19] was 74%, the Vdss [20] was 24 L/kg and the bioavailability [30] was 66%.

Source: ChEMBL document CHEMBL5528042, “Identification of Novel, Selective Ataxia-Telangiectasia Mutated Kinase Inhibitors with the Ability to Penetrate the Blood-Brain Barrier: The Discovery of AZD1390” (J Med Chem, 2024)
